Source: patent US20140107568A1, “METHOD OF DETERMINING AN INJECTED DOSE BASED ON A KNOWN ORAL DOSE” (ANTARES PHARMA, INC., priority 2012, published 2014)

Description: An algorithm was developed to correlate a known oral dose of methotrexate to a jet injector dose. Table 1 illustrates the calculated correlation between oral doses and needle-assisted jet injector doses of methotrexate. The second column illustrates the precise subcutaneous dose calculated based on the algorithm, described in detail below. The third column represents the administrable dose, based on commercially available doses, closest in value to the precise calculated dose.
Based on the data set forth in table 1, a line equation of y=mx+b was developed to correlate an oral dose of methotrexate to an equivalent dose for use with a jet injector. In the present equation, illustrated by the graph shown in FIG. 1, the slope, m, was determined to be 0.6101 and a y-intercept, b, to be 2.9274. The correlation coefficient of the line, R^2, is 0.9594.

CN(Cc1cnc2nc(N)nc(N)c2n1)c1ccc(C(=O)N[C@@H](CCC(=O)O)C(=O)O)cc1 [methotrexate]
slope, m, of line equation y=mx+b correlating oral dose to equivalent jet injector dose: 0.6101
y-intercept, b, of line equation y=mx+b correlating oral dose to equivalent jet injector dose: 2.9274
